Source: PMC9574860, “Chemical Toolkit for PARK7: Potent, Selective, and High-Throughput” (Journal of Medicinal Chemistry, 2022)
pIC50: −log10 of the molar value.

What was measured:
UCHL1 [1] = molecular target: T1, UCHL1 (Homo sapiens, UniProt P09936); assay: Gel-based competition assay with probe 8RK59, UCHL1 band; format: biochemical; conditions: compound 2 μM, 1 h; PARK7 and UCHL1 1 μM each; then 8RK59 2 μM 30 min; Figure 3B
T1 sequence (P09936 1-223): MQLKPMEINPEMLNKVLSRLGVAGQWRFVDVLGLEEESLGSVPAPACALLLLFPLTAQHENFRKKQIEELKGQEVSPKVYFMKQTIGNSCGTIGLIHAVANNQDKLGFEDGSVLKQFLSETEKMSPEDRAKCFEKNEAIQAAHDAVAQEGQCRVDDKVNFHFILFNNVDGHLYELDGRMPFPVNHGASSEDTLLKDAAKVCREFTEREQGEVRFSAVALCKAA
Experimental: (§1) To assess the inhibitory potency and selectivity of these compounds toward PARK7 and UCHL1, we performed a gel-based competition assay (Figure 3A).[36] A mixture of equal amounts of PARK7 and UCHL1 (1 μM) was treated with each of the synthesized compounds (2 μM) for 1 h, followed by incubation with fluorescent probe 8RK59 (2 μM) for 30 min. Samples were resolved by SDS-PAGE, and the gel was scanned for fluorescence. Inhibition of PARK7 or UCHL1 is reflected by the disappearance of their corresponding bands (Figure 3B). […] The inhibition potential of JYQ-88 against PARK7 was assessed in a similar assay where PARK7 was incubated with a serial dilution of JYQ-88 before treatment with probe 8RK59 (Figure 3C). A clear inhibition is visible at 0.5 μM, and full inhibition is achieved between 1 and 2 μM. […] The selectivity of JYQ-88 between UCHL1 and PARK7 was further confirmed in a direct competition assay between equal amounts of PARK7 and UCHL1 (Figure 3F). PARK7 inhibition was observed starting from 0.5 μM JYQ-88, whereas inhibition of UCHL1 was only detected at 20 μM. Since JYQ-88 and 8RK64 are enantiomers, we assumed that the interactions with PARK7 should be similar. To investigate how the chiral center influences the selectivity, we solved the crystal structure of the PARK7−JYQ-88 complex with 1.42 Å resolution (Figure 3G, Table S1, PDB 7PA3). The global positioning of the inhibitor in between the two α-helices was similar to that for 8RK64. […] This way, the thiazolo-pyridine part of JYQ-88 is bound in a similar manner as 8RK64 and the earlier observed interactions are largely the same. The formation of the isothiourea moiety, stabilized by the interaction with Glu18, and the interaction between the thiazole amine and the amide NH2 of the Asn76 side chain are still present. However, the interaction between the azidoacetyl carbonyl with the Leu128 backbone carbonyl can no longer be observed due to the rotation of the azidoacetyl moiety. The Lys132 residue also seems to have rotated (compared to Figure 2C).
(§2) The assay was performed in Tris buffer as described above.

PARK7 [2] = molecular target: T2, PARK7 (Homo sapiens, UniProt Q99497); assay: Gel-based competition assay with probe 8RK59, PARK7 band; format: biochemical; design: GST (N, cleaved yes); made in house; host or cells: E. coli BL21(DE3) Rosetta2; conditions: compound 2 μM, 1 h; PARK7 and UCHL1 1 μM each; then 8RK59 2 μM 30 min; Figure 3B
T2 sequence (Q99497 1-189): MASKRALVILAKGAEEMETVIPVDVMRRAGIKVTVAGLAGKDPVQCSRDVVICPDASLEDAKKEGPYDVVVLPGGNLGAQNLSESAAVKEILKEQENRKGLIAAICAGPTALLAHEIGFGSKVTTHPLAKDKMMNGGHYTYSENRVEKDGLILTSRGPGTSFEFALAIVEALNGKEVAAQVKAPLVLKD
Experimental: as §1, §2

PARK7 [3] = molecular target: T2, PARK7; assay: FP assay with Rhodamine110 probe JYQ-107 (IC50 and hit validation); format: binding; design: GST (N, cleaved yes); made in house; host or cells: E. coli BL21(DE3) Rosetta2; conditions: increasing concentrations, 60 min preincubation; Figure S7
Experimental: The assay was performed using the conditions as described above with a reaction volume of 20 μL per well in triplicate. Stock solutions of JYQ-88 of 1 and 0.1 mM were prepared. […] The FP signal was monitored with a BMG Labtech PHERAstar plate reader (λex/em 480/520 nm) for 2 h.
The validation was performed using the conditions as described above with a reaction volume of 20 μL per well in triplicate. […] The FP signal was monitored with a BMG Labtech PHERAstar plate reader (λex/em 480/520 nm) for 2 h. The relative loss of FP signal compared with reference controls was used to calculate the remaining enzyme activity. Inhibition percentage of these 40 compounds was plotted as a heatmap using GraphPad Prism 9.0.1 software. Color gradients indicate inhibition percentage, no inhibiton (white) and full inhibition (blue).

PARK7 [4] = molecular target: T2, PARK7; assay: High-throughput FP screen of covalent fragment library with JYQ-107; format: binding; design: GST (N, cleaved yes); made in house; host or cells: E. coli BL21(DE3) Rosetta2; conditions: HTS, 100 μM compound, PARK7 0.2 μM, 2 h preincubation, JYQ-107 20 nM, 1536-well
Experimental: The screen was conducted using the conditions as described above in 1536-well plates (Corning 3724) with a reaction volume of 8 μL per well. The compound library containing 7887 covalent fragments was purchased at Enamine Ltd. and received as 100 mM DMSO stocks in 384 well LDV Echo plates (Labcyte LP-0200). Stock solutions of 0.26 μM PARK7 and 80 nM JYQ-107 were prepared. Using a Labcyte Echo550 acoustic dispenser, 8 nL of the DMSO stock solution of the library compounds was transferred from the source plates into the empty 1536-well screening plates to obtain a 100 μM final compound concentration. Next, PARK7 (6 μL, final concentration 0.2 μM) was dispensed using a Biotek MultiflowFX liquid dispenser and incubated for 2 h, followed by dispensing the probe JYQ-107 (2 μL, final concentration 20 nM). After 2 h incubation, the FP signal was recorded on a BMG Labtech PHERAstar plate reader (λex/em 480/520 nm). The relative loss of FP signal compared with reference controls was used to calculate the remaining enzyme activity.

UCHL1 [5] = molecular target: T1, UCHL1; assay: UCHL1 activity assay (Ub-Rho-Morpholine or Ub-AMC substrate); format: biochemical; conditions: UCHL1 1 nM, 1 h preincubation; read-out: UbRhoMP assay UCHL1 IC50
Experimental: The assay was performed in a buffer containing 50 mM Tris·HCl, 100 mM NaCl at pH 7.5, 2.0 mM cysteine, 1 mg/mL 3-[(3-cholamidopropyl)dimethylammonio]propanesulfonic acid (CHAPS), and 0.5 mg/mL bovine serum albumin and conducted in a 384-well plate (Corning 3820) with a reaction volume 20 μL in triplicate. The compounds were dissolved in DMSO as 10, 1, and 0.1 mM stock solutions and were transferred to obtain a 12-point serial dilution of 0.05 to 200 μM. Next, UCHL1 (15 μL, final concentration of 1 nM) was dispensed with a Biotek MultiFlowFX liquid dispenser and incubated for 1 h, followed by dispensing the substrate Ub-Rho-Morpholine or Ub-AMC (5 μL, final concentration of 400 nM). The FI signal was monitored with a BMG Labtech PHERAstar plate reader (λex/em 487/535 nm or λex/em 350/450 nm) for 1 h. N-Ethylmaleimide (NEM, 10 mM) was used as a positive control (100% inhibition), and DMSO was used as a negative control (0% inhibition). All samples were normalized to the positive and negative controls and plotted against the inhibitor concentrations (in μM) using the built-in equation “[inhibitor] vs response – variable slope (four parameters), least-squares fit” with constraints “Bottom = 0” and “Top = 100” in GraphPad Prism 9.0.1 software to obtain the IC50 values.

PARK7 [6] = molecular target: T2, PARK7; assay: Probe labeling of purified recombinant PARK7 (SDS-PAGE, fluorescence scanning); format: binding; design: GST (N, cleaved yes); made in house; host or cells: E. coli BL21(DE3) Rosetta2; conditions: purified PARK7 1 μM, 1 h 37 °C; Figure 4A
Excerpt: PARK7 inhibitor JYQ-88 was further converted into activity-based probes by installing SulfoCy5, Rhodamine110, or BodipyFL. We took advantage of the azide moiety in JYQ-88 and conjugated alkyne versions of these dyes using the copper(I)-catalyzed azide alkyne cycloaddition (CuAAC) to obtain compounds JYQ-92, JYQ-93, and JYQ-107 (Scheme 2). We next investigated the ability of the probes to label and visualize PARK7. […] The SulfoCy5 probe JYQ-92 and Rhodamine110 probe JYQ-107 labeled PARK7 already at 1 μM, while the BodipyFL probe JYQ-93 was less efficient than the other probes as PARK7 labeling was only observed from 5 μM.
All the labeling assays were performed in Tris buffer (50 mM Tris–HCl, 150 mM NaCl, 2 mM TCEP, pH 7.5). For labeling with the 8RK59 probe, 1 μM final concentrations of UCHL1 and PARK7 were individually or together incubated with 2 μM final concentrations of 8RK59 for 30 min at 37 °C, followed by protein visualization. For labeling with JYQ-92, JYQ-93, and JYQ-107, 1 μM final concentration of PARK7 was incubated with different concentrations (0, 0.1, 0.5, 1, 2, 5, and 10 μM) of the indicated probes for 1 h at 37 °C. […] These samples were resolved by SDS-PAGE using precast Bis-Tris gels (Invitrogen, NuPAGE) with MES SDS running buffer (Novex, NuPAGE).

Compound | Inhibition of UCHL1 (disappearance of 8RK59-labeled band) (UCHL1 [1]) | Inhibition of PARK7 (disappearance of 8RK59-labeled band) (PARK7 [2]) | Inhibition % (PARK7 [4]) | further results
N#CN1CC[C@H](C(=O)Nc2nc3c(s2)CN(C(=O)c2cn(CC4CCCO4)nn2)CC3)C1 (stereo partly drawn) [JYQ-55, (3S)-1-Cyano-N-(5-(1-((tetrahydrofuran-2-yl)methyl)-1H-1,2,3-triazole-4-carbonyl)-4,5,6,7-tetrahydrothiazolo[5,4-c]pyridin-2-yl)pyrrolidine-3-carboxamide] | hardly show any inhibition | hardly show any inhibition | – | Inhibition of PARK7 in FP assay (PARK7 [3]): no inhibition
(3S)-N-(5-((1S,2R,5R)-Adamantane-2-carbonyl)-4,5,6,7-tetrahydrothiazolo[5,4-c]pyridin-2-yl)-1-cyanopyrrolidine-3-carboxamide [JYQ-83] | hardly show any inhibition | hardly show any inhibition | – | –
CN1C(=O)CC(C(=O)N2CCc3nc(NC(=O)[C@H]4CCN(C#N)C4)sc3C2)[C@@H]1c1cccnc1 (stereo partly drawn) [JYQ-79, (3S)-1-Cyano-N-(5-((2R)-1-methyl-5-oxo-2-(pyridin-3-yl)pyrrolidine-3-carbonyl)-4,5,6,7-tetrahydrothiazolo[5,4-c]pyridin-2-yl)pyrrolidine-3-carboxamide] | fully inhibit | less efficiently | – | –
C#CC(=O)N1CCc2cc(C(=O)O)ccc21 [Z3227873366, 1-(prop-2-ynoyl)-2,3-dihydro-1H-indole-5-carboxylic acid] | – | – | 1.76% | –
CC1=CC(C)=[N+]2C1=C(CCCCc1cn(CC(=O)N3CCc4nc(NC(=O)[C@@H]5CCN(C#N)C5)sc4C3)nn1)c1c(C)cc(C)n1[B-]2(F)F [JYQ-93] | – | – | – | pIC50 (UCHL1 [5]): 4.64; Probe concentration from which PARK7 labeling was observed (PARK7 [6]): 5 µM
CC1(C)CN(C(=O)CC2OCCCO2)CC2(CCCC2)O1 [Z1953185127, 1-{7,7-dimethyl-6-oxa-9-azaspiro[4.5]decan-9-yl}-2-(1,3-dioxan-2-yl)ethan-1-one] | – | – | 1.97% | –
O=C(NC1CCN(Cc2ccccc2)CC1)n1ccnc1 [Z319217184, N-(1-benzylpiperidin-4-yl)-1H-imidazole-1-carboxamide] | – | – | 1.56% | –
N#CN1CC[C@H](C(=O)Nc2nc3c(s2)CN(C(=O)Cc2ccncc2)CC3)C1 [JYQ-76, (S)-1-Cyano-N-(5-(2-(pyridin-4-yl)acetyl)-4,5,6,7-tetrahydrothiazolo[5,4-c]pyridin-2-yl)pyrrolidine-3-carboxamide] | fully inhibit | less efficiently | – | –
N#CN1CC[C@H](C(=O)Nc2nc3c(s2)CN(C(=O)c2ccc(Br)cc2)CC3)C1 [JYQ-77, (S)-N-(5-(4-Bromobenzoyl)-4,5,6,7-tetrahydrothiazolo[5,4-c]pyridin-2-yl)-1-cyanopyrrolidine-3-carboxamide] | hardly show any inhibition | hardly show any inhibition | – | –
N#CN1CC[C@H](C(=O)Nc2nc3c(s2)CN(C(=O)CCCCBr)CC3)C1 [JYQ-78, (S)-N-(5-(5-Bromopentanoyl)-4,5,6,7-tetrahydrothiazolo[5,4-c]pyridin-2-yl)-1-cyanopyrrolidine-3-carboxamide] | fully inhibit | less efficiently | – | –
NCC1CCN(C(=O)C=Cc2ccc(Cl)s2)C1 (centres unmarked) [Z2242910917, 1-[3-(aminomethyl)pyrrolidin-1-yl]-3-(5-chlorothiophen-2-yl)prop-2-en-1-one] | – | – | -0.36% | –
N#CC=Cc1cccc2cccnc12 [Z3236183481, 3-(quinolin-8-yl)prop-2-enenitrile] | – | – | -0.97% | –
